Results reported in ChEMBL document CHEMBL1201861, “Genomics of Drug Sensitity in Cancer screening data, Wellcome Trust Sanger Institute”.

Assays:
Assay in all cases: cells
COLO-829 = format: functional, cell-based, Homo sapiens; details: Homo sapiens, COLO-829
Description: SANGER: Inhibition of human COLO-829 cell growth in a cell viability assay.

CP50-MEL-B = format: functional, cell-based, Homo sapiens; details: Homo sapiens, CP50-MEL-B;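 also: growth inhibition of the human cell line, measured with a cell viability read-out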
Description: SANGER: Inhibition of human CP50-MEL-B cell growth in a cell viability assay.

D-336MG = format: functional, cell-based, Homo sapiens; details: Homo sapiens, D-336MG
Description: SANGER: Inhibition of human D-336MG cell growth in a cell viability assay.

D-502MG = format: functional, cell-based, Homo sapiens; details: Homo sapiens, D-502MG
Description: SANGER: Inhibition of human D-502MG cell growth in a cell viability assay.

D-542MG = format: functional, cell-based, Homo sapiens; details: Homo sapiens, D-542MG
Description: SANGER: Inhibition of human D-542MG cell growth in a cell viability assay.

DU-4475 = format: functional, cell-based; details: Homo sapiens
Description: SANGER: Inhibition of human DU-4475 cell growth in a cell viability assay.

EW-16 = format: functional, cell-based, Homo sapiens; details: Homo sapiens, EW-16;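 also: growth inhibition of human EW-16 cells, read out as cell viability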
Description: SANGER: Inhibition of human EW-16 cell growth in a cell viability assay.

GI-ME-N = format: functional, cell-based, Homo sapiens; details: Homo sapiens, GI-ME-N;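 also: growth inhibition of human GI-ME-N cells, read out with a cell viability assay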
Description: SANGER: Inhibition of human GI-ME-N cell growth in a cell viability assay.

GOTO = format: functional, cell-based, Homo sapiens; details: Homo sapiens, GOTO;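 also: growth inhibition of GOTO cells, read out by a cell viability assay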
Description: SANGER: Inhibition of human GOTO cell growth in a cell viability assay.

HCC1395 = format: functional, cell-based, Homo sapiens; details: Homo sapiens, HCC1395;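 also: growth inhibition of HCC1395 cells, read out by a cell viability assay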
Description: SANGER: Inhibition of human HCC1395 cell growth in a cell viability assay.

HLE = format: functional, cell-based, Homo sapiens; details: Homo sapiens, HLE;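 also: growth inhibition of human HLE cells, read out by a cell viability assay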
Description: SANGER: Inhibition of human HLE cell growth in a cell viability assay.

HOP-92 = format: functional, cell-based, Homo sapiens; details: Homo sapiens, HOP-92;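 also: cell viability readout, with IC50 reflecting inhibition of HOP-92 cell growth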
Description: SANGER: Inhibition of human HOP-92 cell growth in a cell viability assay.

HSC-3 = format: functional, cell-based, Homo sapiens; details: Homo sapiens, HSC-3
Description: SANGER: Inhibition of human HSC-3 cell growth in a cell viability assay.

HT-1376 = format: functional, cell-based, Homo sapiens; details: Homo sapiens, HT-1376
Description: SANGER: Inhibition of human HT-1376 cell growth in a cell viability assay.

HTC-C3 = format: functional, cell-based, Homo sapiens; details: Homo sapiens, HTC-C3;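 also: inhibition of cell growth, read out with a cell viability assay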
Description: SANGER: Inhibition of human HTC-C3 cell growth in a cell viability assay.

K562 = format: functional, cell-based; details: Homo sapiens
Description: SANGER: Inhibition of human K-562 cell growth in a cell viability assay.

KNS-81-FD = format: functional, cell-based, Homo sapiens; details: Homo sapiens, KNS-81-FD;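 also: growth inhibition of KNS-81-FD cells, read out with a cell viability assay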
Description: SANGER: Inhibition of human KNS-81-FD cell growth in a cell viability assay.

KYSE-140 = format: functional, cell-based, Homo sapiens; details: Homo sapiens, KYSE-140;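 also: cell viability assay measuring growth inhibition in human KYSE-140 cells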
Description: SANGER: Inhibition of human KYSE-140 cell growth in a cell viability assay.

KYSE-270 = format: functional, cell-based, Homo sapiens; details: Homo sapiens, KYSE-270;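 also: cell growth inhibition measured with a viability assay in the human KYSE-270 line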
Description: SANGER: Inhibition of human KYSE-270 cell growth in a cell viability assay.

LB1047-RCC = format: functional, cell-based, Homo sapiens; details: Homo sapiens, LB1047-RCC;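 also: inhibition of cell growth, determined with a cell viability assay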
Description: SANGER: Inhibition of human LB1047-RCC cell growth in a cell viability assay.

MDA-MB-175-VII = format: functional, cell-based, Homo sapiens; details: Homo sapiens, MDA-MB-175-VII
ME-180 = format: functional, cell-based; details: Homo sapiens;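 also: cell viability assay measuring growth inhibition of ME-180 cells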
Description: SANGER: Inhibition of human ME-180 cell growth in a cell viability assay.

MHH-NB-11 = format: functional, cell-based, Homo sapiens; details: Homo sapiens, MHH-NB-11;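 also: growth inhibition of human MHH-NB-11 cells, read out by a cell viability assay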
Description: SANGER: Inhibition of human MHH-NB-11 cell growth in a cell viability assay.

MIA PaCa-2 = format: functional, cell-based, Homo sapiens; details: Homo sapiens, MIA PaCa-2;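 also: growth inhibition of MIA PaCa-2 cells, read out with a cell viability assay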
Description: SANGER: Inhibition of human MIA-PaCa-2 cell growth in a cell viability assay.

MKN-45 = format: functional, cell-based, Homo sapiens; details: Homo sapiens, MKN-45;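 also: growth inhibition of human MKN-45 cells, measured with a cell viability assay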
Description: SANGER: Inhibition of human MKN45 cell growth in a cell viability assay.

NB13 = format: functional, cell-based, Homo sapiens; details: Homo sapiens, NB13;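 also: cell viability readout measuring growth inhibition of human NB13 cells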
Description: SANGER: Inhibition of human NB13 cell growth in a cell viability assay.

NCI-H1563 = format: functional, cell-based, Homo sapiens; details: Homo sapiens, NCI-H1563;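 also: growth inhibition of human NCI-H1563 cells, read out with a cell viability assay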
Description: SANGER: Inhibition of human NCI-H1563 cell growth in a cell viability assay.

NCI-H1792 = format: functional, cell-based, Homo sapiens; details: Homo sapiens, NCI-H1792;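 also: growth inhibition of human NCI-H1792 cells, read out as cell viability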
Description: SANGER: Inhibition of human NCI-H1792 cell growth in a cell viability assay.

NMC-G1 = format: functional, cell-based, Homo sapiens; details: Homo sapiens, NMC-G1;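 also: growth inhibition of the NMC-G1 cell line, measured with a cell viability read-out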
Description: SANGER: Inhibition of human NMC-G1 cell growth in a cell viability assay.

OE33 = format: functional, cell-based, Homo sapiens; details: Homo sapiens, OE33;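 also: growth inhibition of human OE33 cells, measured by a cell viability assay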
Description: SANGER: Inhibition of human OE33 cell growth in a cell viability assay.

PANC-03-27 = format: functional, cell-based, Homo sapiens; details: Homo sapiens, PANC-03-27
Description: SANGER: Inhibition of human PANC-03-27 cell growth in a cell viability assay.

PANC-08-13 = format: functional, cell-based, Homo sapiens; details: Homo sapiens, PANC-08-13;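 also: cell growth inhibition, measured with a cell viability assay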
Description: SANGER: Inhibition of human PANC-08-13 cell growth in a cell viability assay.

RH-1 = format: functional, cell-based, Homo sapiens; details: Homo sapiens, RH-1;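 also: growth inhibition of human RH-1 cells, read out with a cell viability assay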
Description: SANGER: Inhibition of human RH-1 cell growth in a cell viability assay.

RXF 393 = format: functional, cell-based; details: Homo sapiens;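 also: growth inhibition of human RXF 393 cells, read out with a cell viability assay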
Description: SANGER: Inhibition of human RXF393 cell growth in a cell viability assay.

S-117 = format: functional, cell-based, Homo sapiens; details: Homo sapiens, S-117
Description: SANGER: Inhibition of human S-117 cell growth in a cell viability assay.

SK-MEL-28 = format: functional, cell-based; details: Homo sapiens;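 also: growth inhibition of human SK-MEL-28 cells, read out with a cell viability assay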
Description: SANGER: Inhibition of human SK-MEL-28 cell growth in a cell viability assay.

SNU-C2B = format: functional, cell-based, Homo sapiens; details: Homo sapiens, SNU-C2B;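 also: cell viability readout used to measure compound-driven suppression of SNU-C2B cell proliferation, IC50 marking half-maximal growth inhibition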
Description: SANGER: Inhibition of human SNU-C2B cell growth in a cell viability assay.

SW626 = format: functional, cell-based, Homo sapiens; details: Homo sapiens, SW626;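 also: growth inhibition of SW626 cells, measured with a cell viability assay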
Description: SANGER: Inhibition of human SW626 cell growth in a cell viability assay.

786-0 = format: functional, cell-based, Homo sapiens; details: Homo sapiens
Description: SANGER: Inhibition of human 786-0 cell growth in a cell viability assay.

Becker = format: functional, cell-based, Homo sapiens; details: Homo sapiens, Becker;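 also: growth inhibition of Becker cells, read out with a cell viability assay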
Description: SANGER: Inhibition of human Becker cell growth in a cell viability assay.

C2BBe1 = format: functional, cell-based, Homo sapiens; details: Homo sapiens, C2BBe1;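 also: growth inhibition of C2BBe1 cells, read out through a viability assay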
Description: SANGER: Inhibition of human C2BBe1 cell growth in a cell viability assay.

CAL-72 = format: functional, cell-based, Homo sapiens; details: Homo sapiens, CAL-72;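 also: cell viability assay measuring inhibition of proliferation in the CAL-72 cell line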
Description: SANGER: Inhibition of human CAL-72 cell growth in a cell viability assay.

TE-11 = format: functional, cell-based, Homo sapiens; details: Homo sapiens, TE-11;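 also: growth inhibition of human TE-11 cells, read out by a cell viability assay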
Description: SANGER: Inhibition of human TE-11 cell growth in a cell viability assay.

TGBC1TKB = format: functional, cell-based, Homo sapiens; details: Homo sapiens, TGBC1TKB;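 also: growth inhibition of TGBC1TKB cells, read out by a cell viability assay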
Description: SANGER: Inhibition of human TGBC1TKB cell growth in a cell viability assay.

TYK-nu = format: functional, cell-based, Homo sapiens; details: Homo sapiens, TYK-nu;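 also: growth inhibition of human TYK-nu cells, read out by a cell viability assay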
Description: SANGER: Inhibition of human TYK-nu cell growth in a cell viability assay.

UACC-62 = format: functional, cell-based, Homo sapiens; details: Homo sapiens, UACC-62;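 also: growth inhibition of human UACC-62 cells, read out by a cell viability assay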
Description: SANGER: Inhibition of human UACC-62 cell growth in a cell viability assay.

CTV-1 = format: functional, cell-based; details: Homo sapiens;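 also: growth inhibition of the cell line, read out with a cell viability assay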
Description: SANGER: Inhibition of human CTV-1 cell growth in a cell viability assay.

DMS-79 = format: functional, cell-based; details: Homo sapiens;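 also: growth inhibition measured with a cell viability assay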
Description: SANGER: Inhibition of human DMS-79 cell growth in a cell viability assay.

JVM-2 = format: functional, cell-based; details: Homo sapiens;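 also: growth inhibition of JVM-2 cells determined by a cell viability assay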
Description: SANGER: Inhibition of human JVM-2 cell growth in a cell viability assay.

SNU-5 = format: functional, cell-based; details: Homo sapiens;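 also: cell viability readout used to measure growth inhibition in human NCI-SNU-5 cells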
Description: SANGER: Inhibition of human NCI-SNU-5 cell growth in a cell viability assay.

O=c1cc(-c2cccc3c2Sc2ccccc2S3)oc(N2CCOCC2)c1 [KU-55933]
IC50 (COLO-829): > 10 µM
IC50 (CP50-MEL-B): > 10 µM
IC50 (D-336MG): > 10 µM
IC50 (D-502MG): > 10 µM
IC50 (D-542MG): > 10 µM
IC50 (DU-4475): > 10 µM
IC50 (EW-16): > 10 µM
IC50 (GI-ME-N): > 10 µM
IC50 (GOTO): > 10 µM
IC50 (HCC1395): > 10 µM
IC50 (HLE): > 10 µM
IC50 (HOP-92): > 10 µM
IC50 (HSC-3): > 10 µM
IC50 (HT-1376): > 10 µM
IC50 (HTC-C3): > 10 µM
IC50 (K562): > 10 µM
IC50 (KNS-81-FD): > 10 µM
IC50 (KYSE-140): > 10 µM
IC50 (KYSE-270): > 10 µM
IC50 (LB1047-RCC): > 10 µM
IC50 (MDA-MB-175-VII): > 10 µM
IC50 (ME-180): > 10 µM
IC50 (MHH-NB-11): > 10 µM
IC50 (MIA PaCa-2): > 10 µM
IC50 (MKN-45): > 10 µM
IC50 (NB13): > 10 µM
IC50 (NCI-H1563): > 10 µM
IC50 (NCI-H1792): > 10 µM
IC50 (NMC-G1): > 10 µM
IC50 (OE33): > 10 µM
IC50 (PANC-03-27): > 10 µM
IC50 (PANC-08-13): > 10 µM
IC50 (RH-1): > 10 µM
IC50 (RXF 393): > 10 µM
IC50 (S-117): > 10 µM
IC50 (SK-MEL-28): > 10 µM
IC50 (SNU-C2B): > 10 µM
IC50 (SW626): > 10 µM
IC50 (786-0): > 10 µM
IC50 (Becker): > 10 µM
IC50 (C2BBe1): > 10 µM
IC50 (CAL-72): 5.48 µM
IC50 (TE-11): > 10 µM
IC50 (TGBC1TKB): > 10 µM
IC50 (TYK-nu): > 10 µM
IC50 (UACC-62): > 10 µM

CN(Cc1cnc2nc(N)nc(N)c2n1)c1ccc(C(=O)N[C@@H](CCC(=O)O)C(=O)O)cc1 [METHOTREXATE]
IC50 (COLO-829): > 0.2 µM
IC50 (CP50-MEL-B): > 0.2 µM
IC50 (CTV-1): 0.0771 µM
IC50 (D-336MG): > 0.2 µM
IC50 (D-502MG): > 0.2 µM
IC50 (DMS-79): > 0.2 µM
IC50 (EW-16): > 0.2 µM
IC50 (GI-ME-N): 0.147 µM
IC50 (GOTO): > 0.2 µM
IC50 (HCC1395): > 0.2 µM
IC50 (HLE): > 0.2 µM
IC50 (HOP-92): > 0.2 µM
IC50 (HSC-3): > 0.2 µM
IC50 (HT-1376): > 0.2 µM
IC50 (HTC-C3): > 0.2 µM
IC50 (JVM-2): > 0.2 µM
IC50 (K562): > 0.2 µM
IC50 (KNS-81-FD): > 0.2 µM
IC50 (KYSE-140): > 0.2 µM
IC50 (KYSE-270): 0.0521 µM
IC50 (LB1047-RCC): > 0.2 µM
IC50 (MDA-MB-175-VII): > 0.2 µM
IC50 (ME-180): > 0.2 µM
IC50 (MHH-NB-11): > 0.2 µM
IC50 (MIA PaCa-2): > 0.2 µM
IC50 (MKN-45): > 0.2 µM
IC50 (NB13): > 0.2 µM
IC50 (NCI-H1563): > 0.2 µM
IC50 (NCI-H1792): 0.114 µM
IC50 (SNU-5): > 0.2 µM
IC50 (NMC-G1): > 0.2 µM
IC50 (OE33): > 0.2 µM
IC50 (PANC-03-27): > 0.2 µM
IC50 (PANC-08-13): > 0.2 µM
IC50 (RH-1): > 0.2 µM
IC50 (RXF 393): > 0.2 µM
IC50 (S-117): > 0.2 µM
IC50 (SK-MEL-28): > 0.2 µM
IC50 (SNU-C2B): 0.145 µM
IC50 (SW626): > 0.2 µM
IC50 (786-0): > 0.2 µM
IC50 (Becker): > 0.2 µM
IC50 (C2BBe1): > 0.2 µM
IC50 (CAL-72): > 0.2 µM
IC50 (TE-11): > 0.2 µM
IC50 (TGBC1TKB): > 0.2 µM
IC50 (TYK-nu): 0.197 µM
IC50 (UACC-62): > 0.2 µM

O=C(c1cc(Cc2n[nH]c(=O)c3ccccc23)ccc1F)N1CCN(C(=O)C2CC2)CC1 [OLAPARIB]
IC50 (COLO-829): > 5 µM
IC50 (CP50-MEL-B): > 5 µM
IC50 (CTV-1): > 5 µM
IC50 (D-336MG): > 5 µM
IC50 (D-502MG): > 5 µM
IC50 (DMS-79): > 5 µM
IC50 (DU-4475): > 5 µM
IC50 (EW-16): > 5 µM
IC50 (GI-ME-N): > 5 µM
IC50 (GOTO): > 5 µM
IC50 (HCC1395): > 5 µM
IC50 (HLE): > 5 µM
IC50 (HOP-92): > 5 µM
IC50 (HSC-3): > 5 µM
IC50 (HT-1376): > 5 µM
IC50 (HTC-C3): > 5 µM
IC50 (JVM-2): > 5 µM
IC50 (K562): > 5 µM
IC50 (KNS-81-FD): > 5 µM
IC50 (KYSE-140): > 5 µM
IC50 (KYSE-270): > 5 µM
IC50 (LB1047-RCC): > 5 µM
IC50 (MDA-MB-175-VII): > 5 µM
IC50 (ME-180): > 5 µM
IC50 (MHH-NB-11): > 5 µM
IC50 (MIA PaCa-2): > 5 µM
IC50 (MKN-45): > 5 µM
IC50 (NB13): > 5 µM
IC50 (NCI-H1563): > 5 µM
IC50 (NCI-H1792): > 5 µM
IC50 (SNU-5): > 5 µM
IC50 (NMC-G1): > 5 µM
IC50 (OE33): > 5 µM
IC50 (PANC-03-27): > 5 µM
IC50 (PANC-08-13): > 5 µM
IC50 (RH-1): > 5 µM
IC50 (RXF 393): > 5 µM
IC50 (S-117): > 5 µM
IC50 (SK-MEL-28): > 5 µM
IC50 (SNU-C2B): > 5 µM
IC50 (SW626): > 5 µM
IC50 (786-0): > 5 µM
IC50 (Becker): > 5 µM
IC50 (C2BBe1): > 5 µM
IC50 (CAL-72): > 5 µM
IC50 (TE-11): > 5 µM
IC50 (TGBC1TKB): > 5 µM
IC50 (TYK-nu): > 5 µM
IC50 (UACC-62): > 5 µM
